Data taken from patent US20210113540A1, “TREATMENT AGENT AND PHARMACEUTICAL COMPOSITION FOR GLIOMA” (NATIONAL UNIVERSITY CORPORATION HOKKAIDO UNIVERSITY, priority 2018, published 2021).

Tests used:
Type in all cases: cell-based, human
SOX2 in GICs (E6) = assay: SOX2 immunostaining, SOX2/DAPI positive rate in GICs (E6); conditions: 20 μmol/L OSMI-1, cultured 2 days; control 71±2%
Experimental: (§1) The extranuclear elimination of compound 8-dependent SOX2 is dependent on the extranuclear transport factor, Exportin (also known as CRM1). The cells were cultured for one day in the presence of Compound 8 (10 μM) and a CRM1-specific inhibitor leptomycin B (LMB, 150 nM), and GICs were immunostained with the SOX2 antibody. As a result, the SOX2/DAPI positive rate in GICs (E6) was as follows: Control: 95±2%, supplemented with Compound 8: 7±3%, supplemented with Compound 8+LMB: 87±9%; the SOX2/DAPI positive rate in GICs (E16) was as follows: Control: 72±11%, supplemented with compound 8: 0.5±1%, supplemented with Compound 8+LMB: 81±10%. The addition of LMB suppressed Compound 8-dependent extranuclear elimination of SOX2.
(§2) When UDP-GlcNAc was added after the chemical was added to GIC, reduced SOX2 expression in GICs and the cytotoxic activity of Compound 8 on GICs were neutralized (FIGS. 3 and 4). SOX2 K75A in which lysine 75 involved in the binding of CRM1 and SOX2 was substituted with alanine and SOX2 S248A in which the 0-GlcNAcylation target serine 248 was substituted with alanine were prepared, thereby establishing GICs that constitutively express these SOX2 mutants and wild-type SOX2 (SOX2 wt). After treatment with Compound 8, the localization of SOX2 was examined by immunostaining using an anti-FLAG antibody, and the viability of GICs expressing these mutants was examined by MTT assay (FIG. 5). In the presence of Compound 8, SOX2 K75A was present in the nucleus and partially neutralized the cytotoxic activity of Compound 8. SOX2 S248A was not retained in the nucleus by treatment with Compound 8, and no inhibitory effect on cytotoxic activity was observed. […] The SOX2/DAPI positive rate was as follows: GIC (E6): Control: 0%, SOX2 wt: 36±5%, SOX2 K75A: 63±5%, SOX2 S248A: 18±2%; GIC (E16): Control: 0%, SOX2 wt: 22±4%, SOX2 K75A: 58±6%, SOX2 S248A: 15±3%. Error bar: ±SD. Statistical processing is t-test. *P<0.05, **P<0.01, ***P<0.001. GIC was cultured for 2 days with Compound 8 (10 μmol/L) alone or together with UDP-GlcNAc (1 mmol/L), and immunostaining was performed for SOX2 and NESTIN. As a result, the addition of UDP-GlcNAc suppressed Compound 8-dependent extranuclear elimination of SOX2.
(§3) OSMI-1, which is an O-GlcNAc transferase (OGT)-specific inhibitor, suppresses GIC growth and SOX2 expression. (A) GICs were cultured for 3 days in the presence of various concentrations of OSMI-1, and cell growth was examined using MTT assay (FIG. 6). (B) The results of immunostaining for SOX2 and NESTIN using GICs cultured for 2 days in the presence of 20 μmol/L OSMI-1 and calculating the SOX2 positive rate (SOX2/DAPI) are shown below.

SOX2 in GICs (E16) = assay: SOX2 immunostaining, SOX2/DAPI positive rate in GICs (E16); conditions: 20 μmol/L OSMI-1, cultured 2 days; control 65±5%
Experimental: as §1, §2, §3

GICs = assay: GIC growth in the presence of OSMI-1 (MTT assay); conditions: cultured 3 days, various concentrations of OSMI-1, FIG. 6
Experimental: as §3

Structure (SMILES): COc1ccccc1[C@@H](NS(=O)(=O)c1ccc2[nH]c(=O)ccc2c1)C(=O)N(Cc1ccco1)Cc1cccs1 [OSMI-1, reference compound]
- SOX2 positive rate (SOX2/DAPI), GIC (E6) (SOX2 in GICs (E6)): 32±4%
- SOX2 positive rate (SOX2/DAPI), GIC (E16) (SOX2 in GICs (E16)): 30±5%
- GIC growth (GICs): suppresses
